This is an account of results in article PMC6333442, “Conserved allosteric pathways for activation of TRPV3 revealed through engineering vanilloid-sensitivity” (eLife, 2019).

Structures are written as SMILES. Several values for one entry are separate records, joined by “and”; a condition that tells them apart may be missing. Identical values can stand only once.

One assay addresses TRPV3-4PM (Mus musculus, UniProt Q8K424, F625L/F656I/F666Y/V587L). Here is the method: (§1) All channel constructs were expressed in Xenopus laevis oocytes and studied using the two-electrode voltage clamp technique (TEVC) following 1–4 days of incubation after cRNA injection. The animal care and experimental procedures were performed in accordance with the Guide for the Care and Use of Laboratory Animals and were approved by the Animal Care and Use Committee of the National Institute of Neurological Disorders and Stroke (Animal protocol number 1253–17). Oocytes were removed surgically and incubated with agitation for 1 hr in a solution containing (in mM) 82.5 NaCl, 2.5 KCl, 1 MgCl2, 5 HEPES, pH 7.6 (with NaOH), and collagenase (2 mg/ml; Worthington Biochemical, Lakewood, NJ). Defolliculated oocytes were injected with cRNA for each of the constructs and incubated at 17°C in a solution containing (in mM) 96 NaCl, 2 KCl, 1 MgCl2, 1.8 CaCl2, 5 HEPES, pH 7.6 (with NaOH), and gentamicin (50 μg/ml, GIBCO-BRL, Gaithersburg, MD). Oocyte membrane voltage was controlled using an OC-725C oocyte clamp (Warner Instruments, Hamden, CT). Data were filtered at 1–3 kHz and digitized at 20 kHz using pClamp software (Molecular Devices, Sunnyvale, CA) and a Digidata 1440A digitizer (Axon Instruments). Microelectrode resistances were 0.1–1 MΩ when filled with 3 M KCl. For recording TRP channel currents, the external recording solution contained (in mM) 100 KCl, 10 HEPES, pH 7.6 (with KOH). Experiments were performed at room temperature (~22°C), except as indicated otherwise. […] Current time courses were obtained by stepping membrane voltage every 2 s from a holding potential of 0 mV to either −60 or +60 mV for 100 ms, and plotting the mean steady-state current at the end of each voltage step as a function of total recording time. I-V relations were obtained similarly, but voltage was stepped every 2 s to a different value, in 10 mV increments and starting at −60 mV.

In the next assay the target is TRPV3-A606V (Mus musculus, UniProt Q8K424, A606V). The protocol:
as §1

The next assay deals with TRPV3-V587L (Mus musculus, UniProt Q8K424, V587L). The note with it: -60 mV. Here is the method: as §1
Assay [1] deals with T1, mouse TRPV3-4M (F522S/L557M/A560T/Q580E) (Mus musculus, UniProt Q8K424, A560T/F522S/L557M/Q580E).
T1 construct: expressed in transfected cells; host or cells: Xenopus laevis oocytes
T1 sequence (Q8K424 1-791 F522S/L557M/A560T/Q580E): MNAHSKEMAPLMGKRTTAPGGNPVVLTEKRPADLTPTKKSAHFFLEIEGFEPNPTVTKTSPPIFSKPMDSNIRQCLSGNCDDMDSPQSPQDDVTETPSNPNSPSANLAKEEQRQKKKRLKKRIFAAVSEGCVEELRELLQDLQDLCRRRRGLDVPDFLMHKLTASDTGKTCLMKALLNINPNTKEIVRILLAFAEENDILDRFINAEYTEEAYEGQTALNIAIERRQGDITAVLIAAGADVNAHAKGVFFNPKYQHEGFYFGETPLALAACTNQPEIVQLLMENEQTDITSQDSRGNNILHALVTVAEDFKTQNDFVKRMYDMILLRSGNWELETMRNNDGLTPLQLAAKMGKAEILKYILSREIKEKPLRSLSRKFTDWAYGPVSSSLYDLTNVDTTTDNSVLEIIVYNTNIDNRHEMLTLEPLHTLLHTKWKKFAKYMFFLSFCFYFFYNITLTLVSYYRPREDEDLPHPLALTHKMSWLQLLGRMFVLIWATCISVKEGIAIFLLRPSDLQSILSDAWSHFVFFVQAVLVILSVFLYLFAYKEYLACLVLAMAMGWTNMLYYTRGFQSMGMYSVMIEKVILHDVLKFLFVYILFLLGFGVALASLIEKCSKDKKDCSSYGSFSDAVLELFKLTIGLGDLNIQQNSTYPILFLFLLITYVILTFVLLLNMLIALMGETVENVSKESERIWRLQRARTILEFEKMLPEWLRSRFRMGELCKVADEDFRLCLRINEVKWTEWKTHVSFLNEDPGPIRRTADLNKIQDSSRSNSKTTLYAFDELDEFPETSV
The experiment in a line: Two-electrode voltage clamp, TRPV3-4M in oocytes. Type of assay: cell-based. The note with it: RTx 100 nM, 2-APB 3 mM, room temperature, ±60 mV. Here is the method:
(§2) All channel constructs were expressed in Xenopus laevis oocytes and studied using the two-electrode voltage clamp technique (TEVC) following 1–4 days of incubation after cRNA injection. The animal care and experimental procedures were performed in accordance with the Guide for the Care and Use of Laboratory Animals and were approved by the Animal Care and Use Committee of the National Institute of Neurological Disorders and Stroke (Animal protocol number 1253–17). Oocytes were removed surgically and incubated with agitation for 1 hr in a solution containing (in mM) 82.5 NaCl, 2.5 KCl, 1 MgCl2, 5 HEPES, pH 7.6 (with NaOH), and collagenase (2 mg/ml; Worthington Biochemical, Lakewood, NJ). Defolliculated oocytes were injected with cRNA for each of the constructs and incubated at 17°C in a solution containing (in mM) 96 NaCl, 2 KCl, 1 MgCl2, 1.8 CaCl2, 5 HEPES, pH 7.6 (with NaOH), and gentamicin (50 μg/ml, GIBCO-BRL, Gaithersburg, MD). Oocyte membrane voltage was controlled using an OC-725C oocyte clamp (Warner Instruments, Hamden, CT). Data were filtered at 1–3 kHz and digitized at 20 kHz using pClamp software (Molecular Devices, Sunnyvale, CA) and a Digidata 1440A digitizer (Axon Instruments). Microelectrode resistances were 0.1–1 MΩ when filled with 3 M KCl. For recording TRP channel currents, the external recording solution contained (in mM) 100 KCl, 10 HEPES, pH 7.6 (with KOH). […]

The test system of assay [2] is TRPV3-6M + L596V, L599F, S613K, D618P, S620E, I644F, Q646E, P651K, L653V, I659L or T660A. The experiment in a line: Two-electrode voltage clamp, TRPV3-6M with individual pore mutations (no RTx response). Type of assay: cell-based, mouse. The note with it: RTx 100 nM, 2-APB 3 mM, room temperature. Here is the method:
as §2

Assay [3] has as its system TRPV3-6M/V2P (pore domain of rat TRPV2 in TRPV3-6M). The experiment in a line: Two-electrode voltage clamp, TRPV3-6M/V2P chimera in oocytes. The following applies: RTx 100 nM. The class given is cell-based, mouse. The protocol:
as §2
For temperature-activation experiments, calcium-activated chloride currents were minimized by using calcium-free solution containing 30 µM Caccinh-A01 and recording at negative membrane voltages. Heat stimuli were achieved by passing the external recording solution through glass capillary spirals immersed in a water bath maintained at about 70°C, and recordings were performed during constant perfusion with temperature measured using a thermistor (TA-29, Warner Instruments) located close to the cell. […] The mean I vs T relations were calculated by automatically binning each of the recordings in temperature intervals of 2°C, and averaging a single data point within each interval per cell. […]
A general note: In two-electrode clamp one electrode senses voltage and the other passes current.

The subject of assay [4] is TRPV3-6M + V587L, A606V, F625L, F656I or F666Y. The experiment in a line: Two-electrode voltage clamp, TRPV3-6M with individual pore mutations (strong RTx responders). Type of assay: cell-based, mouse. The following applies: RTx 100 nM, room temperature; magnitude very similar to 2-APB 3 mM. The protocol:
as §2

The test system of the next assay is TRPV1. More on the design: method as in Zhang et al., 2016. The following applies: ref Zhang et al., 2016; cited from earlier work.

The term EC50 denotes the midpoint of the concentration-response curve.

Chain of TRPV3-A606V (Q8K424 whole entry A606V): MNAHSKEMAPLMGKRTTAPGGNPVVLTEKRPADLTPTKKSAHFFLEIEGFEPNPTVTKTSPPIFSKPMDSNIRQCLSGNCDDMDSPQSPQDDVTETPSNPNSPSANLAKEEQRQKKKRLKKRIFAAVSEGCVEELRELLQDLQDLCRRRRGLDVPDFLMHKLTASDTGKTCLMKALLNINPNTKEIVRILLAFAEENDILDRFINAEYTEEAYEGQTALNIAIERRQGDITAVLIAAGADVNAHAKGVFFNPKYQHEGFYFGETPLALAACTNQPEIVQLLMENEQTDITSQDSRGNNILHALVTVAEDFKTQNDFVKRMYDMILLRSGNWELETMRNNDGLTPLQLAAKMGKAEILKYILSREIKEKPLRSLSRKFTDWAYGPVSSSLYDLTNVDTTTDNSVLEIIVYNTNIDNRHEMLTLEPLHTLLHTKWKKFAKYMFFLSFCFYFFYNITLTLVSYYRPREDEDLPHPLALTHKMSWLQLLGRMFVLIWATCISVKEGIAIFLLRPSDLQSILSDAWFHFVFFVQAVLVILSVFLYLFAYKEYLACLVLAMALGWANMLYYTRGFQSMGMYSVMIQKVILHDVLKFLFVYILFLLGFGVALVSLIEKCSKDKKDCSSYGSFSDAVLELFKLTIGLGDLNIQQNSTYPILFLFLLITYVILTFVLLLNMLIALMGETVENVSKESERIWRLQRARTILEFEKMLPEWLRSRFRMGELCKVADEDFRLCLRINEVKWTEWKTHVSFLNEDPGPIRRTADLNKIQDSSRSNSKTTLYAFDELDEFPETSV
Chain of TRPV3-4PM (Q8K424 whole entry V587L/F625L/F656I/F666Y): as the sequence (Q8K424 whole entry A606V) above, with V587L, V606A, F625L, F656I, F666Y counted along it
Chain of TRPV3-V587L (Q8K424 whole entry V587L): as the sequence (Q8K424 whole entry A606V) above, with V587L, V606A counted along it

In the case of `NCCOB(c1ccccc1)c1ccccc1` [2-APB, 2-aminoethoxydiphenyl borate], the entries for the “s (slope) of Hill fit, 2-APB concentration-response” value at TRPV3-4PM (-60 mV), on TRPV3-A606V (-60 mV) and on TRPV3-V587L were 1.84, 2.72 and 2.28, respectively. At TRPV3-4PM (relative to WT TRPV3), the “shift in the apparent affinity for 2-APB” value was ~ 2 fold and 2 fold. The concentration giving a half-maximal response (EC50) came out at 132 ± 7 µM on TRPV3-A606V (read-out: apparent affinity (EC50) for activation by 2-APB, -60 mV, room temperature, Hill fit) and 443 ± 13 µM at TRPV3-V587L (read-out: apparent affinity (EC50) for activation by 2-APB, room temperature, Hill fit). Further, at TRPV3-A606V (relative to WT TRPV3), the “increase in the apparent affinity for 2-APB” value is ~ 3.5 fold and 3.5 fold. For the same compound, the “channel activation (current response)” value is “activated” in assay [1] and “still activated” in assay [2].

In the case of `C=C(C)[C@]12C[C@@H](C)[C@@]34O[C@](Cc5ccccc5)(O[C@@H]1[C@@H]3C=C(COC(=O)Cc1ccc(O)c(OC)c1)C[C@]1(O)C(=O)C(C)=C[C@@H]41)O2` [RTx, resiniferatoxin], the “channel activation (current response)” value is reported as “not by 100 nM RTx” in assay [1]; “robustly activated” in assay [3] (room temperature, ±60 mV); “robust RTx-activated currents” in assay [4]; “RTx-insensitive” in assay [2]. In assay [3] (temperature decreased to 10°C), the “RTx activation on cooling” value was “reduced to baseline levels”. In addition, the “saturating concentration of RTx” value in the assay on TRPV1 was 100 nM.
